Test results taken from ChEMBL document CHEMBL2074523, “Hepatic uptake of cholecystokinin octapeptide by organic anion-transporting polypeptides OATP4 and OATP8 of rat and human liver” (Gastroenterology, 2001).

T1: Solute carrier organic anion transporter family member 1B3 (OATP1B3) (Homo sapiens, UniProt Q9NPD5)
T1 sequence (Q9NPD5 whole entry): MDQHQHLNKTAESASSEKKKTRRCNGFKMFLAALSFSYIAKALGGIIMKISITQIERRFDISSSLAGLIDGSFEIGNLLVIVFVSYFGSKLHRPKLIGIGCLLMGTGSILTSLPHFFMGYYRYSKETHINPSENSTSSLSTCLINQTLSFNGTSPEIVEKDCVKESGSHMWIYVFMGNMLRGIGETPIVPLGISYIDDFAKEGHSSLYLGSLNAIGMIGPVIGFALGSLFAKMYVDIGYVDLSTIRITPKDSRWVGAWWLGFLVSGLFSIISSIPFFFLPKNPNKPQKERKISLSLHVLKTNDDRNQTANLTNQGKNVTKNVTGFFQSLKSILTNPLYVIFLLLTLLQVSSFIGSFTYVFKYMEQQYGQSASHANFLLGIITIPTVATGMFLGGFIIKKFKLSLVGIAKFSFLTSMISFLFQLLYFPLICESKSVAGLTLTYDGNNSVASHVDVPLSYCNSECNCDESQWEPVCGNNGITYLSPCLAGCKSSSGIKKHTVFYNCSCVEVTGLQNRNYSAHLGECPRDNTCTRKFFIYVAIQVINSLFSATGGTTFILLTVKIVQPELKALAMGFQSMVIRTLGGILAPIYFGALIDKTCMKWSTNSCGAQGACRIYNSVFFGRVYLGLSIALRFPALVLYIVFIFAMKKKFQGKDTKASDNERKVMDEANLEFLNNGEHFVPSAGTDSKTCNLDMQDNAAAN


Columns and labels:
[1] = molecular target: T1, Solute carrier organic anion transporter family member 1B3 (OATP1B3); test: (§1) TP_TRANSPORTER: uptake in Xenopus laevis oocytes; conditions: Xenopus laevis oocytes expressing OATP1B3 (SLCO1B3)
[2] = substrate: CSCC[C@H](NC(=O)[C@H](Cc1ccc(OS(=O)(=O)O)cc1)NC(=O)[C@@H](N)CC(=O)O)C(=O)NCC(=O)N[C@@H](Cc1c[nH]c2ccccc12)C(=O)N[C@@H](CCSC)C(=O)N[C@@H](CC(=O)O)C(=O)N[C@@H](Cc1ccccc1)C(N)=O; test: as §1; format: functional, cell-based, Oocyte

Molecule | Km [1] [µM] | Km [2] [µM]
CSCC[C@H](NC(=O)[C@H](Cc1ccc(OS(=O)(=O)O)cc1)NC(=O)[C@@H](N)CC(=O)O)C(=O)NCC(=O)N[C@@H](Cc1c[nH]c2ccccc12)C(=O)N[C@@H](CCSC)C(=O)N[C@@H](CC(=O)O)C(=O)N[C@@H](Cc1ccccc1)C(N)=O [SINCALIDE] | 11.1 | –
Solute carrier organic anion transporter family member 1B2 (Rattus norvegicus) (protein) MDHTQQSRKAAEAQPSRSKQTRFCDGFKLFLAALSFSYICKALGGVVMKSSITQIERRFDIPSSISGLIDGGFEIGNLLVIVFVSYFGSKLHRPKLIGIGCFIMGIGSILTALPHFFMGYYKYAKENDIGSLGNSTLTCFINQMTSPTGPSPEIVEKGCEKGLKSHMWIYVLMGNMLRGIGETPIVPLGISYLDDFAKEGHTSMHLGTLHTIAMIGPILGFIMSSVFAKIYVDVGYVDLNSVRITPNDARWVGAWWLSFIVNGLLCITSSIPFFFLPKIPKRSQEERKNSVSLHAPKTDEEKKHMTNLTKQEEQDPSNMTGFLRSLRSILTNEIYVIFLILTLLQVSGFIGSFTYLFKFIEQQFGRTASQANFLLGIITIPTMATAMFLGGYIVKKFKLTSVGIAKFVFFTSSVAYAFQFLYFPLLCENKPFAGLTLTYDGMNPVDSHIDVPLSYCNSDCSCDKNQWEPICGENGVTYISPCLAGCKSFRGDKKPNNTEFYDCSCISNSGNNSAHLGECPRYKCKTNYYFYIILQVTVSFFTAMGSPSLILILMKSVQPELKSLAMGFHSLIIRALGGILAPIYYGAFIDRTCIKWSVTSCGKRGACRLYNSRLFGFSYLGLNLALKTPPLFLYVVLIYFTKRKYKRNDNKTLENGRQFTDEGNPDSVNKNGYYCVPYDEQSNETPL | – | 14.9
